# From patent publication US6762207B1, “(E)-styryl sulfone anticancer agents” (priority 1999, dated 2004)
# Assays:
# Assay type in all cases: cell-based
# Parameters in all cases: dose or concentration left out as unconfirmed
# Settings in all cases: 96 hours
# [1] = system: breast tumor cell line MCF-7; assay: Trypan blue exclusion viability assay, MCF-7
# Experimental: (§1) MCF-7 is estrogen-responsive, while BT-20 is an estrogen-unresponsive cell line. NIH/3T3 and HFL are normal murine and human fibroblasts, respectively. MCF-7, BT-20, DLD-1 and H157 were grown in Dulbecco's modified Eagle's medium (DMEM) containing 10% fetal bovine serum supplemented with penicillin and streptomycin. DU145 was cultured in RPMI with 10% fetal bovine serum containing penicillin and streptomycin. […] All cell cultures were maintained at 37° C. in a humidified atmosphere of 5% CO2. Cells were treated with test compound at 2.5 mM concentration and cell viability was determined after 96 hours by the Trypan blue exclusion method.
# [2] = system: prostate tumor cell line DU-145; assay: Trypan blue exclusion viability assay, DU145
# Experimental: as §1
# [3] = system: colorectal carcinoma cell line DLD-1; assay: Trypan blue exclusion viability assay, DLD-1
# Experimental: as §1
# [4] = system: non-small cell lung carcinoma cell line H157; assay: Trypan blue exclusion viability assay, H157
# Experimental: as §1
# [5] = system: breast tumor cell line BT-20; assay: Trypan blue exclusion viability assay, BT20
# Experimental: as §1
smiles,measurement,setting,value
"O=[N+]([O-])c1ccc(CS(=O)(=O)/C=C/c2ccc(F)cc2)cc1 [Example 9, (E)-4-Fluorostyryl-4-nitrobenzylsulfone]","Cell death, MCF-7",[1],++ (10-15% = ++)
same,"Cell death, DU145",[2],++ (10-15% = ++)
same,"Cell death, DLD-1",[3],− (0% = −)
same,"Cell death, H157",[4],++ (10-15% = ++)
same,"Cell death, BT20",[5],++ (10-15% = ++)
